Among the data in US8809550B2, “Androgen receptor antagonists and uses thereof” (priority 2009, dated 2014) are IC50 and inhibition values, retold here.

Experiment [1] has as its system Prostate-specific Antigen (PSA) production in LNCaP cells. Nature of the experiment: PSA assay: inhibition of PSA production in LNCaP cells (ELISA). The format is cell-based. The conditions noted are these: Homo sapiens, 72 h, R1881 1 ng/ml, three days, seven point assay. The procedure:
(§1) PSA Assay (Inhibition Test of the Compound of the Present Invention on Prostate-Specific Antigen (PSA) Production in Various Prostate Cancer Cells)
(§2) Androgen dependent LNCaP and 22RV1 cells were purchased from the American Type Culture Collection (ATCC, Manassas, Va.). These cells were grown in RPMI 1640 medium supplemented with 10% fetal bovine serum (FBS), 100 U/mL penicillin, 100 μg/mL streptomycin, and 0.25 μg/mL amphotericin B. The cells were maintained at 37° C. and 5% CO2. LNCaP cells between passage 20 and 35, and 22RV1 cells between passage 30 and 50 were used for experiments. LNCaP is a hormone sensitive cell line, while 22RV1 is a hormone refractory prostate cancer cell line, which derived from a primary prostate tumor. This cell line was isolated from a xenograft (CWR22R-2152) that was serially propagated in mice after castration-induced regression and relapse of the parental, androgen-dependent CWR xenograft. For the PSA assay, human prostate cancer cells LNCaP or 22RV1 were seeded in a 96-well plate at a concentration of 5000 cells/100 μl/well. On the following day, Methyltrienolone (R1881, AR agonist) (final concentration 1 ng/ml), test compounds or bicalutamide (Casodex®, AstraZeneca) (final concentration 0.005 to 20 μM) were added. Three days after the addition, the concentration of PSA in the supernatant of the culture solution was measured by ELISA. ELISAs for human PSA in culture medium were performed using the ultra-sensitive assay procedure and reagents in the Active™ PSA assay kit (Diagnostic Systems Laboratories Inc., Webster, Tex.). Culture medium and standards (200 μl/well) were incubated in antibody-coated plates for 2 h at room temperature on a Titer plate shaker at 500-600 rpm. Wells were then washed five times. The HRP conjugate was diluted 1:20 with assay buffer, and 100 μl was added to all wells. The plates were incubated for 30 min at room temperature on the shaker and washed as before, and 100 μl TMB (3,3′,5,5′-tetramethylbenzidine, 0.4 g/l) was added. The plates were incubated for 10 min on the shaker, and the reaction was terminated with 100 μl stop solution. The plates were read using a plate reader at 450 nm with a 650 nm reference filter. PSA levels were normalized for differences in growth of LNCaP or 22RV1 cells following various treatments as determined by the MTS assay. IC50 of PSA was calculated based on a seven point assay (concentrations of tested compound) and expressed as micromolar (uM). Results on 22RV1 cells are shown as percent inhibition at 2 micromolar (uM). ND means not determined
On the technique in general: An ELISA detects its analyte on a solid surface through an enzyme-linked reagent.

Experiment [2] relates to Prostate-specific Antigen (PSA) production in 22RV1 cells. Nature of the experiment: PSA assay: inhibition of PSA production in 22RV1 cells (ELISA). The conditions noted are these: Homo sapiens, 72 h, R1881 1 ng/ml, three days. The format is cell-based. On the procedure:
as §1
as §2, with “Results on 22RV1 cells are shown as percent inhibition at 2 micromolar (uM).” left out

The compound `CNC(=O)c1ccc(N2C(=S)N(c3cc(F)c(C#N)cc3F)C(=O)C23CCC3)cc1F` [Example 3, 4-[7-(4-Cyano-2,5-difluoro-phenyl)-8-oxo-6-thioxo-5,7-diaza-spiro[3.4]oct-5-yl]-2-fluoro-N-methyl-benzamide] displayed an IC50 in experiment [1] of 2100 nM. Further, 2 µM produced 21% inhibition in experiment [2].

As for `CNC(=O)c1ccc(N2C(=S)N(c3ccc(C#N)cc3OC(F)(F)F)C(=O)C23CCC3)cc1F` [Example 4, 4-[7-(4-Cyano-2-trifluoromethoxy-phenyl)-8-oxo-6-thioxo-5,7-diaza-spiro[3.4]oct-5-yl]-2-fluoro-N-methyl-benzamide], in experiment [1], the IC50 is 1400 nM.

`CNC(=O)c1ccc(N2C(=S)N(c3ccc(C#N)cc3F)C(=O)C23CCC3)cc1F` [Example 5, 4-[7-(4-Cyano-2-fluoro-phenyl)-8-oxo-6-thioxo-5,7-diaza-spiro[3.4]oct-5-yl]-2-fluoro-N-methyl-benzamide] came in with an IC50 in experiment [1] of 1400 nM.

With `CNC(=O)c1ccc(N2C(=S)N(c3ccc(C#N)cc3C)C(=O)C23CCC3)cc1F` [Example 6, 4-[7-(4-Cyano-2-methyl-phenyl)-8-oxo-6-thioxo-5,7-diaza-spiro[3.4]oct-5-yl]-2-fluoro-N-methyl-benzamide], in experiment [1], the IC50 came out at 1500 nM. This IC50 and that of the compound before are within 1.5-fold of each other.

In experiment [1], `CNC(=O)c1ccc(N2C(=S)N(c3ccc(C#N)cc3C(F)(F)F)C(=O)C23CCC3)cc1F` [Example 7, 4-[7-(4-Cyano-2-trifluoromethyl-phenyl)-8-oxo-6-thioxo-5,7-diaza-spiro[3.4]oct-5-yl]-2-fluoro-N-methyl-benzamide] gave an IC50 of 1500 nM.

Take `CNC(=O)c1ccc(N2C(=S)N(c3ccc(C#N)c(C#N)c3)C(=O)C23CCC3)cc1F` [Example 9, 4-[7-(3,4-Dicyano-phenyl)-8-oxo-6-thioxo-5,7-diaza-spiro[3.4]oct-5-yl]-2-fluoro-N-methyl-benzamide]: half-maximal inhibition in experiment [1] (IC50) required 980 nM. In addition, 2 µM produced 64% inhibition in experiment [2].

Take `CC1(C)C(=O)N(c2ccc(C#N)c(C(F)(F)F)c2F)C(=S)N1c1ccc(S(C)(=O)=O)cc1` [Example 13, 3-Fluoro-4-[3-(4-methanesulfonyl-phenyl)-4,4-dimethyl-5-oxo-2-thioxo-imidazolidin-1-yl]-2-trifluoromethyl-benzonitrile]: half-maximal inhibition in experiment [1] (IC50) required 520 nM. Further, in experiment [2], testing at 2 µM gave an inhibition of 61%.

The compound `CC1(C)C(=O)N(c2ccc(C#N)c(C(F)(F)F)c2F)C(=S)N1c1ccc(C#N)cc1` [Example 14, 4-(4,4-Dimethyl-5-oxo-2-thioxo-3-p-cyanophenyl-imidazolidin-1-yl)-3-fluoro-2-trifluoromethyl-benzonitrile] returned an IC50 in experiment [1] of 490 nM. For the same compound, in experiment [2], the inhibition at 2 µM was 71%.

In turn, `Cc1ccc(N2C(=S)N(c3ccc(C#N)c(C(F)(F)F)c3F)C(=O)C2(C)C)cn1` [Example 15, 4-[4,4-Dimethyl-3-(6-methyl-pyridin-3-yl)-5-oxo-2-thioxo-imidazolidin-1-yl]-3-fluoro-2-trifluoromethyl-benzonitrile] came in with an IC50 in experiment [1] of 350 nM. Also, in experiment [2], at 2 µM the inhibition was 69%.

With `CC1(C)C(=O)N(c2ccc(C#N)c(Cl)c2F)C(=S)N1c1ccc(S(C)(=O)=O)cc1` [Example 16, 2-Chloro-3-fluoro-4-[3-(4-methanesulfonyl-phenyl)-4,4-dimethyl-5-oxo-2-thioxo-imidazolidin-1-yl]-benzonitrile], in experiment [1], inhibition was half-maximal at 630 nM (IC50). In experiment [2], this compound showed an inhibition at 2 µM of 70%.

Consider `Cc1ccc(N2C(=S)N(c3ccc(C#N)c(Cl)c3F)C(=O)C2(C)C)cn1` [Example 17, 2-Chloro-4-[4,4-dimethyl-3-(6-methyl-pyridin-3-yl)-5-oxo-2-thioxo-imidazolidin-1-yl]-3-fluoro-benzonitrile], for which the IC50 in experiment [1] amounted to 310 nM. Besides, the inhibition at 2 µM in experiment [2] was determined as 76%.

Take `COc1c(C#N)ccc(N2C(=O)C(C)(C)N(c3ccc(S(C)(=O)=O)cc3)C2=S)c1F` [Example 21, 3-Fluoro-4-[3-(4-methanesulfonyl-phenyl)-4,4-dimethyl-5-oxo-2-thioxo-imidazolidin-1-yl]-2-methoxy-benzonitrile]: the IC50 in experiment [1] was 1800 nM.

Regarding `CNC(=O)c1ccc(N2C(=S)N(c3ccc(C#N)c(OC)c3F)C(=O)C2(C)C)cc1F` [Example 22, 4-[3-(4-Cyano-2-fluoro-3-methoxy-phenyl)-5,5-dimethyl-4-oxo-2-thioxo-imidazolidin-1-yl]-2-fluoro-N-methyl-benzamide], in experiment [1], the IC50 came out at 520 nM. 2 µM produced 57% inhibition in experiment [2].

As to `Cc1ccc(N2C(=S)N(c3ccc(C#N)c(C#N)c3)C(=O)C2(C)C)cc1F` [Example 25, 4-[3-(3-Fluoro-4-methyl-phenyl)-4,4-dimethyl-5-oxo-2-thioxo-imidazolidin-1-yl]-phthalonitrile], the IC50 in experiment [1] stood at 290 nM. For the same compound, the inhibition at 2 µM in experiment [2] is 82%.

Compound `Cc1ccc(N2C(=S)N(c3ccc(C#N)c(Cl)c3F)C(=O)C2(C)C)cc1` [Example 29, 2-Chloro-4-(4,4-dimethyl-5-oxo-2-thioxo-3-p-tolyl-imidazolidin-1-yl)-3-fluoro-benzonitrile] had an IC50 in experiment [1] of 280 nM. The compound also registered an inhibition at 2 µM in experiment [2] of 78%.

For `Cc1ccc(N2C(=S)N(c3ccc(C#N)c(Cl)c3F)C(=O)C2(C)C)cc1F` [Example 31, 2-Chloro-3-fluoro-4-[3-(3-fluoro-4-methyl-phenyl)-4,4-dimethyl-5-oxo-2-thioxo-imidazolidin-1-yl]-benzonitrile], in experiment [1], the IC50 amounted to 420 nM. In addition, at 2 µM the inhibition in experiment [2] was 67%.

In general, IC50 refers to the concentration needed to halve the response being measured. A lower IC50 goes with greater potency in that assay. The term inhibition denotes the drop in the measured response relative to a control, in per cent. Low readings indicate a response near the control, high ones a response far below the control.
